These are literature values, as cited in patent publication US20230078230A1, “METHODS FOR THE PRODUCTION OF COMMITTED CARDIAC PROGENITOR CELLS” (FUJIFILM Cellular Dynamics, Inc., priority 2021, published 2023).

One data set concerns ROCK1/ROCK2. As to conditions: ROCK1/ROCK2, competing with ATP.
The test system of data set [1] is pluripotent stem cell-derived cardiomyocytes.

As for `C[C@@H](N)[C@H]1CC[C@H](C(=O)Nc2ccncc2)CC1` [Y-27632], the IC50 in the data set with ROCK1/ROCK2 was 800 nM. As for `COc1ccc([C@@H]2Sc3ccccc3N(CCN(C)C)C(=O)[C@@H]2OC(C)=O)cc1` [diltiazem], the “effect on contractile activity” value in data set [1] is “inhibits contractile activity in a dose-dependent manner”. For the compound `CC(C)NCC(O)c1ccc(O)c(O)c1` (stereo not shown) [isoprenaline], in data set [1], the “effect on contractile activity” value is on record as “positive chronotropic effect”.

In the case of `CNC[C@H](O)c1cccc(O)c1` [phenylephrine], the “effect on contractile activity” value in data set [1] was “positive chronotropic effect”.

The IC50 is the concentration needed to halve the response being measured.
